Results reported in patent US20090093469A1, “Phenylaminopropanol Derivatives and Methods of Their Use” (WYETH, priority 2004, published 2009).
Structures can show the parent of a compound that is named as a salt.

These compounds were tested against T1, hNET (Homo sapiens, UniProt P23975) (assay: Norepinephrine (NE) uptake assay in MDCK-Net6 cells stably transfected with human hNET). Conditions: MDCK-Net6, read-out: % Inhibition @ 1 μM (hNET).
T1 construct: expressed in transfected cells
Type: cell-based
Method: Cells were plated at 300,000/T75 flask and cells were split twice weekly. […] Cells were plated at 250,000 cells/T75 flask and split twice weekly.
On day 1, cells were plated at 3,000 cells/well in growth medium and maintained in a cell incubator (37° C., 5% CO2). On day 2, growth medium was replaced with 200 μl of assay buffer (25 mM HEPES; 120 mM NaCl; 5 mM KCl; 2.5 mM CaCl2; 1.2 mM MgSO4; 2 mg/ml glucose (pH 7.4, 37° C.)) containing 0.2 mg/ml ascorbic acid and 10 μM pargyline. Plates containing cells with 200 μl of assay buffer were equilibrated for 10 minutes at 37° C. prior to addition of compounds. A stock solution of desipramine was prepared in DMSO (10 mM) and delivered to triplicate wells containing cells for a final test concentration of 1 μM. Data from these wells were used to define non-specific NE uptake (minimum NE uptake). Test compounds were prepared in DMSO (10 mM) and diluted in assay buffer according to test range (1 to 10,000 nM). Twenty-five microliters of assay buffer (maximum NE uptake) or test compound were added directly to triplicate wells containing cells in 200 μl of assay buffer. The cells in assay buffer with test compounds were incubated for 20 minutes at 37° C. To initiate the NE uptake, [^3H]NE diluted in assay buffer (120 nM final assay concentration) was delivered in 25 μl aliquots to each well and the plates were incubated for 5 minutes (37° C.). The reaction was terminated by decanting the supernatant from the plate. The plates containing cells were washed twice with 200 μl assay buffer (37° C.) to remove free radioligand. The plates were then inverted, left to dry for 2 minutes, then reinverted and air-dried for an additional 10 minutes. The cells were lysed in 25 μl of 0.25 N NaOH solution (4° C.), placed on a shake table and vigorously shaken for 5 minutes. After cell lysis, 75 μl of scintillation cocktail was added to each well and the plates were sealed with film tape. The plates were returned to the shake table and vigorously shaken for a minimum of 10 minutes to ensure adequate partitioning of organic and aqueous solutions. The plates were counted in a Wallac Microbeta counter (PerkinElmer) to collect the raw cpm data.
For each experiment, a data stream of cpm values collected from the Wallac Microbeta counter was downloaded to a Microsoft Excel statistical application program. Calculations of EC50 values were made using the transformed-both-sides logistic dose response program written by Wyeth Biometrics Department.

T1 sequence (P23975 whole entry): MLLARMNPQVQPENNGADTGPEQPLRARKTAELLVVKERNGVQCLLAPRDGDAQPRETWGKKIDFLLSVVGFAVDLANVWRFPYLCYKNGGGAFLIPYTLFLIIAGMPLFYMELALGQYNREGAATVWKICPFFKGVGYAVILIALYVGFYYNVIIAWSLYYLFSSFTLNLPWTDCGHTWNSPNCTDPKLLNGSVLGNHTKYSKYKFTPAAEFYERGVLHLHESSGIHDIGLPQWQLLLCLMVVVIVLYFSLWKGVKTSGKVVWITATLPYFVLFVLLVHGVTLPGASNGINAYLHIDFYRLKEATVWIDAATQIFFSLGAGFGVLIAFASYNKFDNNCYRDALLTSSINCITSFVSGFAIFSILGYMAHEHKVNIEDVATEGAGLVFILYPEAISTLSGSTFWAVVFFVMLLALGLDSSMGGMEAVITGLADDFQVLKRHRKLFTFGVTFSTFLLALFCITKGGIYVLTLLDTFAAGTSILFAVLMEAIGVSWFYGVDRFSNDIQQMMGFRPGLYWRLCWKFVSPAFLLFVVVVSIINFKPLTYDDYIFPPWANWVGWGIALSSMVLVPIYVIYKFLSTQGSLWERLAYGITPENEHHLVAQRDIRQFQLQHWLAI

| Compound | inhibition at 1 µM |
| --- | --- |
| CNC[C@@H](O)[C@H](c1cccc(F)c1)n1ccc2cc(C)ccc21 [Example 92, ((1S,2R)-1-(3-fluorophenyl)-3-(methylamino)-1-(5-methyl-1H-indol-1-yl)propan-2-ol hydrochloride] | 85.8% |
| CNC[C@@H](O)[C@@H](c1ccccc1)n1ccc2cc(Cl)ccc21 (racemic) [Example 27, hydrochloride] | 75.4% |
| CNC[C@H](O)[C@@H](c1ccccc1C)n1ccc2ccccc21 (single isomer, unassigned) [Example 54, hydrochloride] | 68.6% |
| CCCn1c(=O)n([C@@H](c2ccccc2)[C@H](O)CNC)c2cc(F)ccc21 [Example 198, 5-fluoro-3-[(1S,2R)-2-hydroxy-3-(methylamino)-1-phenylpropyl]-1-propyl-1,3-dihydro-2H-benzimidazol-2-one hydrochloride] | 97.7% |
| CNC[C@@H](O)[C@H](c1cccc(F)c1)n1ccc2cccc(Cl)c21 [Example 149, (1S,2R)-1-(7-chloro-1H-indol-1-yl)-1-(3-fluorophenyl)-3-(methylamino)propan-2-ol hydrochloride] | 100% |
| CNC[C@@H](O)[C@H](c1ccc(F)cc1)n1ccc2ccccc21 [Example 51, (1S,2R)-1-(4-fluorophenyl)-1-(1H-indol-1-yl)-3-(methylamino)propan-2-ol hydrochloride] | 87% |
| CNC[C@@H](O)[C@H](c1cccc(F)c1)n1ccc2ccc(Br)cc21 [Example 132, (1S,2R)-1-(6-bromo-1H-indol-1-yl)-1-(3-fluorophenyl)-3-(methylamino)propan-2-ol hydrochloride] | 93% |
| CNC[C@@H](O)[C@H](c1cccc(C)c1)n1ccc2ccccc21 [Example 52, (1S,2R)-1-(1H-indol-1-yl)-3-(methylamino)-1-(3-methylphenyl)propan-2-ol hydrochloride] | 94.3% |
| CNCC(O)[C@H](c1ccccc1)n1ccc2ccccc21 (stereo in doubt) [Example 23, (1S,2R)-1-(1H-indol-1-yl)-3-(methylamino)-1-phenylpropan-2-ol hydrochloride] | 89.7% |
| Cc1cn([C@H](c2ccccc2)[C@@H](O)CN)c2ccccc12 (racemic) [Example 24, (1RS,2SR)-3-amino-1-(3-methyl-1H-indol-1-yl)-1-phenylpropan-2-ol hydrochloride] | 57.2% |
| CCn1c(=O)n([C@@H](c2ccccc2)[C@H](O)CNC)c2ccccc21 [Example 200, 1-Ethyl-3-[(1S,2R)-2-hydroxy-3-(methylamino)-1-phenylpropyl]-1,3-dihydro-2H-benzimidazol-2-one hydrochloride] | 97.9% |
| CCc1cn([C@@H](c2cccc(F)c2)[C@H](O)CNC)c2ccccc12 [Example 97, ((1S,2R)-1-(3-fluorophenyl)-3-(methylamino)-1-(3-ethyl-1H-indol-1-yl)propan-2-ol hydrochloride] | 99.6% |

Same assay, conditions: test compound 1 μM; [3H]NE uptake, MDCK-Net6 cells; read-out: % Inhibition @ 1 μM (hNET)

| Compound | inhibition at 1 µM |
| --- | --- |
| CNC[C@@H](O)[C@H](c1cccc(F)c1)n1cc(-c2ccc(C)cc2)c2ccccc21 [Example 170, (1S,2R)-1-(3-fluorophenyl)-3-(methylamino)-1-[3-(4-methylphenyl)-1H-indol-1-yl]propan-2-ol hydrochloride] | 96.4% |
| OC(CNC1CC1)C(c1cccc(F)c1)n1ccc2ccccc21 (stereo in doubt) [Example 111, (1S,2R)-3-(cyclopropylamino)-1-(3-fluorophenyl)-1-(1H-indol-1-yl)propan-2-ol hydrochloride] | 42.7% |
| CNC[C@@H](O)[C@H](c1ccccc1)N1C(=O)C2(CCCC2)c2ccccc21 [Example 108, 1′-[(1S,2R)-2-hydroxy-3-(methylamino)-1-phenylpropyl]spiro-[cyclopentane-1,3′-indol]-2′(1′H)-one hydrochloride] | 98.7% |

Results, then the compound that gave them:

| inhibition at 1 µM | Compound |
| --- | --- |
| 34.3% | O[C@@H](CN1CCNCC1)[C@@H](c1ccccc1)n1ccc2ccccc21 (racemic) [Example 13, (1RS,2SR)-1-(1H-indol-1-yl)-1-phenyl-3-piperazin-1-ylpropan-2-ol dihydrochloride] |
| 96.9% | CNC[C@@H](O)[C@H](c1ccccc1)n1ccc2cccc(F)c21 [Example 181, (1S,2R)-1-(7-fluoro-1H-indol-1-yl)-3-(methylamino)-1-phenylpropan-2-ol hydrochloride] |
| 99.6% | CNC[C@@H](O)[C@H](c1cc(F)cc(F)c1)n1ccc2ccccc21 [Example 157, (1S,2R)-1-(3,5-difluorophenyl)-1-(1H-indol-1-yl)-3-(methylamino)propan-2-ol hydrochloride] |
| 53.9% | CNC[C@@H](O)[C@H](c1ccccc1)n1ccc2cccnc21 [Example 82, (1S,2R)-3-(methylamino)-1-phenyl-1-(1H-pyrrolo[2,3-b]pyridin-1-yl)propan-2-ol] |
| 24% | CNC[C@@H](O)[C@H](c1ccccc1)n1cnc2ccccc21 (racemic) [Example 72, (1RS,2SR)-1-(1H-benzimidazol-1-yl)-3-(methylamino)-1-phenyl propan-2-ol hydrochloride] |
| 65% | CNC[C@@H](OC)[C@H](c1ccccc1)n1cc(C)c2cc(F)ccc21 [Example 123, [(2R,3S)-3-(5-fluoro-3-methyl-1H-indol-1-yl)-2-methoxy-3-phenylpropyl]methylamine hydrochloride] |
| 52.7% | CNC[C@@H](O)[C@H](c1cccc(F)c1)n1ccc2ccncc21 [Example 86, (1S,2R)-3-methylamino-1-(3-fluorophenyl)-1-(1H-pyrrolo[2,3-c]pyridin-1-yl) propan-2-ol dihydrochloride] |
| 71.8% | CNC[C@@H](O)[C@H](c1ccccc1)n1ccc2ccc(Br)cc21 [Example 129, (1S,2R)-1-(6-bromo-1H-indol-1-yl)-3-(methylamino)-1-phenylpropan-2-ol hydrochloride] |
| 99.7% | CNC[C@@H](O)[C@H](c1ccccc1)N1C(=O)C2(CCCCC2)c2cc(Br)ccc21 [Example 113, 5′-bromo-1′-[(1S,2R)-2-hydroxy-3-(methylamino)-1-phenylpropyl]-spiro[cyclohexane-1,3′-indol]-2′(1′H)-one hydrochloride] |
| 99.1% | CNC[C@@H](O)[C@H](c1cccc(F)c1)n1cc(-c2ccccc2)c2ccccc21 [Example 98, ((1S,2R)-1-(3-fluorophenyl)-3-(methylamino)-1-(3-phenyl-1H-indol-1-yl)propan-2-ol hydrochloride] |
| 99.7% | CNC[C@@H](O)[C@H](c1ccccc1)N1CCc2cc(Cl)ccc21 [Example 87, (1S,2R)-1-(5-chloro-2,3-dihydro-1H-indol-1-yl)-3-(methylamino)-1-phenylpropan-2-ol hydrochloride] |
| 21.8% | CNC[C@@H](O)[C@H](c1ccccc1)n1c(C)nc2ccccc21 (racemic) [Example 73, (1RS,2SR)-3-(methylamino)-1-(2-methyl-1H-benzimidazol-1-yl)-1-phenylpropan-2-ol hydrochloride] |

Same assay, conditions: test compound 10 μM (stated in cell); [3H]NE uptake, MDCK-Net6 cells

| inhibition at 10 µM | Compound |
| --- | --- |
| 70.5% | Cc1cn([C@H](c2ccccc2)[C@@H](O)CNC(C)C)c2ccccc12 (racemic) [Example 10, (1RS,2SR)-3-(isopropylamino)-1-(3-methyl-1H-indol-1-yl)-1-phenylpropan-2-ol hydrochloride] |
